Laboratory results taken from PubChem BioAssay AID2742 (NMMLSC, 2010).
The source made the active and inactive calls.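 How the source made its calls: active means fitted half-maximal concentration for changing background-corrected GFP signal at or below a set limit; inactive means the rest.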

Experiment: modulators of MEP2-GFP levels in yeast, dose response, S. cerevisiae, flow cytometry GFP, MLPCN hits (AID 2742);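 further: GFP tag reports level of MEP2 protein as a downstream target of TOR signalling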
Conditions: S. cerevisiae MEP2-GFP strain, flow cytometry fluorescence, 3 h; at 33 µM (top of the series)

SMILES | GFP fluorescence (kMESF), higher = increase
COc1cccc2sc(Nc3nc(-c4ccccn4)cs3)nc12 | 5.3 kMESF (inactive)
O=c1/c(=C/c2cccc3ccccc23)sc2ncnn12 | 4.23 kMESF (inactive)
Cc1ccc(/C=C2/C(=O)ON=C2c2ccccc2)o1 | 3.11 kMESF (inactive)
O=C1c2ccccc2C(=O)C2OC12 (stereo unspecified) | 3.37 kMESF (inactive)
O=C1N(c2ccccc2C(F)(F)F)O[C@@]1(c1ccccc1)C1CCCC1 | 2.17 kMESF (inactive)
O=[N+]([O-])c1cc(F)c2cccnc2c1O | 5.96 kMESF (inactive)
COc1ccc(C=C2C(=O)c3ccccc3C2=O)cc1O | 2.67 kMESF (inactive)
Cc1cc(C(=O)Nc2nc(-c3ccccn3)cs2)ccc1[N+](=O)[O-] | 4.48 kMESF (inactive)
N=C1S/C(=C\c2ccco2)C(=O)N1c1nccs1 | 4.56 kMESF (inactive)
O=C(Nc1ccccc1)c1nnsc1S(=O)(=O)c1ccc(Cl)cc1 | 6.03 kMESF (inactive)
Cc1ccc(N2C(=O)C(Cl)=C(Nc3c(C)n(C)n(-c4ccccc4)c3=O)C2=O)cc1 | 1.97 kMESF (inactive)
CC(C)C[C@]1(c2ccccc2)ON(c2ccccc2C(F)(F)F)C1=O | 2.97 kMESF (inactive)
N/C(Cc1ccc(Cl)cc1Cl)=N\OC(=O)c1cccs1 | 4.76 kMESF (inactive)
Oc1c(C(Nc2nc3ccccc3s2)c2ccco2)ccc2cccnc12 (stereo unspecified) | 5.51 kMESF (inactive)
O=C1C=CC(=O)N1c1ccc(N2CCCCC2)cc1 | 5.69 kMESF (inactive)
Cc1ccc(/C=c2\sc3nc(-c4cccs4)nn3c2=O)o1 | 8.12 kMESF (inactive)
O=[N+]([O-])c1cc(CN2CCN(c3ccccc3)CC2)c(O)c2ncccc12 | 4.24 kMESF (inactive)
CC(C)[C@]1(c2ccc(Cl)cc2)ON(c2ccccc2C(F)(F)F)C1=O | 2.37 kMESF (inactive)
C/C(=N\NC(=O)c1cccc(Br)c1)c1ccccn1 | 4.33 kMESF (inactive)
COc1cc(N2C(=O)C=CC2=O)c(OC)cc1Cl | 3.78 kMESF (inactive)
Cc1cc(O)c(C(=O)/C=C/c2c(F)c(F)c(F)c(F)c2F)c(=O)o1 | 0.99 kMESF (inactive)
O=C(c1ccc(C(=O)N2CCCc3ccccc32)s1)N1CCCc2ccccc21 | 3.28 kMESF (inactive)

SMILES | GFP fluorescence (kMESF), higher = increase
Cc1c(N2C(=O)/C(=C\c3ccccc3O)SC2=S)c(=O)n(-c2ccccc2)n1C | 4.71 kMESF (inactive)
COc1ccc(C2=CC(=O)N(Nc3ccccc3)C2=O)cc1 | 6.84 kMESF (inactive)
COc1ccc(/C=C2\C(=O)ON=C2c2ccccc2)cc1 | 4.38 kMESF (inactive)
On1ccccc1=S | 3.58 kMESF (inactive)
O=[N+]([O-])c1ccc(N=Nc2c(Cl)cc(O)cc2Cl)cc1 | 4.93 kMESF (inactive)
O=C1Nc2ccc(Br)cc2/C1=C/C(=O)c1ccc2c(c1)OCO2 | 4.66 kMESF (inactive)
Cc1ccc(/C=C2\C(=O)NC(=S)N(c3ccc(F)cc3)C2=O)s1 | 4.08 kMESF (inactive)
O=C(NCc1ccc2c(c1)OCO2)c1nc(S(=O)(=O)Cc2ccccc2)ncc1Cl | 2.56 kMESF (inactive)
O=c1c2cnn(-c3ccccc3)c2ncn1Cc1ccco1 | 1.97 kMESF (inactive)
Cc1ccccc1C(=O)NNC(=S)NC(=O)c1ccc(Cl)cc1Cl | 6.21 kMESF (inactive)
CC1(c2ccccc2)ON(c2ccccc2C(F)(F)F)C1=O (stereo unspecified) | 4.18 kMESF (inactive)
CC(Oc1ccc2ccccc2c1)C(=O)NNC(=S)NC(=O)c1ccco1 (stereo unspecified) | 4.16 kMESF (inactive)
COc1ccc(N2C(=O)C(Cl)=C(Oc3cccc(OC)c3)C2=O)cc1 | 4.18 kMESF (inactive)
CCN(CC)c1ccc2cc(-c3nc4ccccc4[nH]3)c(=O)oc2c1 | 6.39 kMESF (inactive)
O=C1N(c2ccccc2C(F)(F)F)O[C@]1(c1ccccc1)C1CCCC1 | 2.4 kMESF (inactive)
O=C(NNC(=S)NC(=O)C12CC3CC(CC(C3)C1)C2)c1ccncc1 | 6.72 kMESF (inactive)
CN(C)c1ccc(N=Cc2nc(-c3ccccc3)oc2OC(=O)c2ccccc2)cc1 | 3.17 kMESF (inactive)
O=C(OCC(=O)N1CCN(C(=O)c2ccco2)CC1)c1cc(-c2ccc(Cl)c(Cl)c2Cl)nc2ccccc12 | 4.51 kMESF (inactive)
N/C(Cc1ccc(Cl)cc1)=N\OC(=O)c1cccc2ccccc12 | 3.73 kMESF (inactive)
Cc1ccsc1/C=N/Nc1ncc(Cl)cc1Cl | 5.19 kMESF (inactive)
O=C(Nc1nc2ccc(F)cc2s1)c1ccccn1 | 3.71 kMESF (inactive)
O=C1N(c2ccccc2C(F)(F)F)O[C@@]1(c1ccccc1)C1CCCCC1 | 2.87 kMESF (inactive)

SMILES | GFP fluorescence (kMESF), higher = increase
O=C(O)c1ccc2c(c1)C(=O)/C(=C/c1ccccc1)C2=O | 2.47 kMESF (inactive)
CC(C)CC(=O)NC(=S)Nc1nc(-c2ccccc2)cs1 | 2.07 kMESF (inactive)
C=CCOc1ccc(C(=O)/C=C2/C(=O)Nc3ccccc32)cc1 | 3.85 kMESF (inactive)
COc1cc(/C=C2\C(=O)ON=C2c2ccccc2)cc(Br)c1O | 4.31 kMESF (inactive)
O=[N+]([O-])c1ccc(S(=O)(=O)c2ccccc2)nc1 | 5.25 kMESF (inactive)
CCOC(=O)CSC1=NC(=O)/C(=C\c2ccc(Cl)cc2)S1 | 4.12 kMESF (inactive)
Cc1nn2c(NCc3ccccn3)c3c(nc2c1-c1ccccc1)CCC3 | 2.73 kMESF (inactive)
CCN(CC)C(=S)SSC(=S)N(CC)CC | 5.19 kMESF (inactive)
CN(C)C(=O)Oc1ccnc2cc(Cl)ccc12 | 3.58 kMESF (inactive)
CN(O)/C=c1/ccc2c(n1)C(=O)C=CC=2 | 3.88 kMESF (inactive)
COc1ccc(C(=O)NNC(=S)NC(=O)/C=C/c2cccs2)cc1 | 5.04 kMESF (inactive)
Cc1cc(NC(c2ccc(Cl)cc2)c2ccc3cccnc3c2O)no1 (stereo unspecified) | 4.11 kMESF (inactive)
CN(C)c1ccc(/C=C/c2cc[n+](C)cc2)cc1 | 2.76 kMESF (inactive)
CCCCc1ccc(NC(=O)CC(C)=O)cc1 | 2.02 kMESF (inactive)
CCCCCCCCCCCCCCCC[n+]1cccc2ccccc21 | 1.62 kMESF (inactive)
CS(=O)(=O)c1nc(-c2cccs2)cc(C(F)(F)F)n1 | 6.41 kMESF (inactive)
CC(=O)OC[C@]12CC[C@H]3[C@@](C)(CC[C@H]4C(C)(C)CCC[C@]34C)[C@@H]1C[C@H](C1=CC(=O)O[C@@H]1OC(C)=O)O2 | 1.79 kMESF (inactive)
N/C(=N\OC(=O)c1cccc(Br)c1)c1ccccc1 | 2.6 kMESF (inactive)
O=C(CCS(=O)(=O)c1ccccc1)Nc1nc(-c2ccccn2)cs1 | 1.34 kMESF (inactive)
Cc1ccc(S(=O)(=O)/N=C(\Sc2ccccc2)c2ccccc2)cc1 | 3.88 kMESF (inactive)
ClC(Cl)(c1nnnn1-c1ccccc1)c1nnnn1-c1ccccc1 | 4.4 kMESF (inactive)
CCOc1ccc(C(C)=O)cc1N1C(=O)C2C3C=CC(O3)C2C1=O (stereo unspecified) | 3.31 kMESF (inactive)

SMILES | GFP fluorescence (kMESF), higher = increase
CCN(CC(=O)Nc1cc(S(=O)(=O)N2CCOCC2)ccc1Cl)Cc1ccccc1 | 2.25 kMESF (inactive)
COc1cc(N=c2ssnc2Cl)cc(OC)c1 | 4.07 kMESF (inactive)
O=C(Nc1ccccc1)ON=C1CCCC1 | 2.76 kMESF (inactive)
CCCS(=O)(=O)c1nnnn1-c1cccc(OC)c1 | 2.18 kMESF (inactive)
CCOc1ccccc1/C=c1\sc2ncnn2c1=O | 4.47 kMESF (inactive)
COc1ccc(N2C(=O)C(Cl)=C(Nc3c(C)n(C)n(-c4ccccc4)c3=O)C2=O)cc1 | 2.4 kMESF (inactive)
O=C(/C=C/c1ccccn1)c1cc(Br)ccc1O | 4.38 kMESF (inactive)
Cc1c(C)c2ccc(Oc3ccc([N+](=O)[O-])cc3C(F)(F)F)c(C)c2oc1=O | 2 kMESF (inactive)
Cc1c(NC2=C(Cl)C(=O)N(c3ccccc3Cl)C2=O)c(=O)n(-c2ccccc2)n1C | 1.97 kMESF (inactive)
COc1cc(/C=C2/C(=O)ON=C2c2ccccc2)ccc1O | 3.68 kMESF (inactive)
COc1ccc(C2=CC3=C(Br)C(=O)C(C)(O)C(=O)C3=CO2)cc1 (stereo unspecified) | -0.97 kMESF (inactive)
CN1C(=O)/C(=N\OC(=O)c2cccc3ccccc23)c2ccccc21 | 3.68 kMESF (inactive)
CCCCS(=O)(=O)/C=C\C=C/S(=O)(=O)CCCC | 5.41 kMESF (inactive)
O=[N+]([O-])c1cc(Cl)cc(/C=N\Nc2ccccn2)c1O | 4.91 kMESF (inactive)
O=C(/C=C/c1cc(Br)ccc1O)c1ccco1 | 6.67 kMESF (inactive)
CCN1/C(=C/C=C/c2sc3ccccc3[n+]2CC)Sc2ccccc21 | 105 kMESF (inactive)
O=C(/C=C/c1cccc(Cl)c1)c1nc2ccccc2[nH]1 | 3.3 kMESF (inactive)
COc1ccc(C(=O)NC(=S)NNC(=O)CCc2ccccc2)cc1 | 3.68 kMESF (inactive)
Cc1ccccc1N1C(=O)C(Cl)=C(N2CCN(c3ccccc3)CC2)C1=O | 2.9 kMESF (inactive)
COc1ccccc1C(=O)NNC(=S)NC(=O)c1cccs1 | 4.73 kMESF (inactive)
